Read-outs that look alike come from different tables or passages of the source.
Tested on: Human lymphocytes
Experiment: PHA-stimulated human lymphocyte proliferation (3H-thymidine incorporation)
Type: cell-based
Experimental: Immunosuppressive activity of the collected fractions was evaluated in an in vitro standard pharmacological test procedure designed to measure lymphocyte proliferation. The procedure used is briefly described below.
Human lymphocytes were isolated from blood anticoagulated with heparin. Blood was centrifuged with ficoll at 545 g at room temperature for 20 min. The lymphocyte layer was washed with phosphate buffered saline by centrifugation at 280 g for 10 min and subsequently with the culture medium (430 g, 10 min). The cells were adjusted to a concentration of 10^6 cells/mL with RPMI 1640 medium supplemented with 2 mM glutamine, 100 U/mL penicillin, 100 μg streptomycin and 10% fetal calf serum. For each fraction evaluated, the 1 g/L solution in methanol was diluted with culture medium to provide a concentration of 1 mg/L. The concentration of metabolite in each fraction was determined by HPLC comparison with an external rapamycin standard curve. A solution composed of 100 μL of the cell suspension, containing 5 mg/L PHA, and 100 μL of the metabolite solution were pipetted into the wells of a 96-well plate. The cells were incubated for 44 h at 37° C. in a 5% CO2 atmosphere. After addition of 1 μCi ^3 H-thymidine/well the cells were incubated for additional 4.5 h. […] The thawed cells were harvested and ^3 H-thymidine incorporation was determined by liquid scintillation counting.

Row | SMILES | IC50 (lymphocyte proliferation, human lymphocytes from heparin blood, PHA, incubated 44 h at 37° C., then 3H-thymidine 4.5 h, read-out: IC50) [nM] | IC50 (Homo sapiens, Lymphocyte) [nM]
1 | CO[C@H]1C[C@@H]2CC[C@@H](C)[C@@](O)(O2)C(=O)C(=O)N2CCCC[C@H]2C(=O)O[C@H]([C@H](C)C[C@@H]2CC[C@@H](O)[C@H](O)C2)CC(=O)[C@H](C)/C=C(\C)[C@@H](O)[C@@H](OC)C(=O)[C@H](C)C[C@H](C)/C=C/C=C/C=C/1C [Example 1, 41-O-Desmethyl rapamycin] | 1 | 
2 | CO[C@H]1C[C@@H]2CC[C@@H](C)[C@@](O)(O2)C(=O)C(=O)N2CCCC[C@H]2C(=O)O[C@H]([C@H](C)C[C@@H]2CC[C@@H](O)[C@H](OC)C2)CC(=O)[C@H](C)/C=C(\C)[C@@H](O)[C@@H](OC)C(=O)[C@H](C)C[C@H](C)/C=C/C=C/C=C/1C [Rapamycin, rapamycin] |  | 0.1

Reference: patent US5776943A, “Rapamycin metabolites” (American Home Products Corporation, priority 1991, dated 1998)
